This experiment has as its target T1, human Cav3.2 channels (Homo sapiens, UniProt O95180).
T1 construct: human Cav3.2 channel ORF (Open Reading Frame) gene; expressed in transfected cells; host or cells: HEK293 cells (ATCC No. CRL-1573), pcDNA3.1(+) plasmid
Put plainly: T-type calcium blocking action: intracellular calcium (Fluo-4 AM fluorescence) in HEK293 cells steadily expressing human Cav3.2 channels. Type of experiment: cell-based. The following applies: HEK293 cells expressing human Cav3.2; KCl-stimulated calcium influx, Fluo-4 fluorescence; Tables 1 to 3. The text has this: T-Type Calcium Blocking Action
(1) Construction of Cells Steadily Expressing Human Cav3.2 Channels
A sequence obtained by adding HindIII site and a kozak sequence (GCCACC) to the 5′-side of human Cav3.2 channel ORF (Open Reading Frame) gene and adding a KpnI site to the 3′-side of the gene, was incorporated into pcDNA3.1(+) (Thermo Fisher Scientific, #V790-20), and the plasmid was introduced into HEK293 cells (ATCC No. CRL-1573) according to the protocol of FuGENE (registered trademark) HD Transfection Reagent (Promega, #E2311).
(2) Method for Measuring Intracellular Calcium Concentration
The cells steadily expressing human Cav3.2 channels produced by testing method (1) were seeded on a 96-well plate (Dulbecco's modified Eagle medium (DMEM) medium containing 10% fetal bovine serum (FBS) was used as a medium). The cells were seeded and cultured for 48 hours under conditions of 37° C. and 5% CO2. Thereafter, the cells were washed with buffer A in order to remove the medium. Each well was treated with 80 μL of a fluorescent dye solution produced by mixing 22 μg of a fluorescent calcium indicator, Fluo-4 AM (Dojindo Laboratories, #F311), 20 μL of DMSO, 1 μL of 10% Pluronic F-127 (Thermo Fisher Scientific, #P6866), and 4 mL of buffer A. The cells were allowed to stand for 45 minutes at room temperature under light-shielded conditions, and then washed with buffer B in order to completely replace the solution. 70 μL of DMSO having the same concentration as that of a test compound as a negative control and 70 μL of a mixture containing 1 μM of a known blocker RQ-00311651 and the test compound as a positive control were each added to each well in a form of being contained in the buffer B. The test compound was dissolved in 100% DMSO and added at a final concentration of 0.1%. Then, the cells were further allowed to stand at room temperature under light-shielded conditions for 15 minutes and placed in a microplate reader EnVision (PerkinElmer). Background fluorescence was measured in each well, and then a 5 μg/mL grammicidin solution was added to buffer B at 10 μL/well. After 90 seconds, baseline fluorescence was measured. Thereafter, 83.8 mM KCl was added to buffer B at 20 μL/well, and an increase in fluorescence caused by calcium influx generated by the stimulus was measured for 10 seconds. A blocking percentage was calculated from a maximum fluorescence increase value from a baseline, a logarithmic value of a compound concentration and blockery activity were plotted, and thereby an IC50 value was calculated. In the measurement, fluorescence at 510 nm that was emitted when the cells were irradiated with excitation light at 485 nm was observed.
Buffer A: 140 mM NaCl, 5 mM KCl, 1 mM MgCl2, 0.5 mM CaCl2, 10 mM Glucose, 10 mM HEPES, pH 7.3
Buffer B: 137.9 mM Choline-Cl, 4.1 mM KCl, 1 mM MgCl2, 0.5 mM CaCl2, 10 mM Glucose, 10 mM HEPES, pH 7.3
Background: A change in cytosolic calcium serves as a functional read-out for many receptors and channels.

Some results are limits rather than exact numbers.

T1 sequence (O95180 whole entry): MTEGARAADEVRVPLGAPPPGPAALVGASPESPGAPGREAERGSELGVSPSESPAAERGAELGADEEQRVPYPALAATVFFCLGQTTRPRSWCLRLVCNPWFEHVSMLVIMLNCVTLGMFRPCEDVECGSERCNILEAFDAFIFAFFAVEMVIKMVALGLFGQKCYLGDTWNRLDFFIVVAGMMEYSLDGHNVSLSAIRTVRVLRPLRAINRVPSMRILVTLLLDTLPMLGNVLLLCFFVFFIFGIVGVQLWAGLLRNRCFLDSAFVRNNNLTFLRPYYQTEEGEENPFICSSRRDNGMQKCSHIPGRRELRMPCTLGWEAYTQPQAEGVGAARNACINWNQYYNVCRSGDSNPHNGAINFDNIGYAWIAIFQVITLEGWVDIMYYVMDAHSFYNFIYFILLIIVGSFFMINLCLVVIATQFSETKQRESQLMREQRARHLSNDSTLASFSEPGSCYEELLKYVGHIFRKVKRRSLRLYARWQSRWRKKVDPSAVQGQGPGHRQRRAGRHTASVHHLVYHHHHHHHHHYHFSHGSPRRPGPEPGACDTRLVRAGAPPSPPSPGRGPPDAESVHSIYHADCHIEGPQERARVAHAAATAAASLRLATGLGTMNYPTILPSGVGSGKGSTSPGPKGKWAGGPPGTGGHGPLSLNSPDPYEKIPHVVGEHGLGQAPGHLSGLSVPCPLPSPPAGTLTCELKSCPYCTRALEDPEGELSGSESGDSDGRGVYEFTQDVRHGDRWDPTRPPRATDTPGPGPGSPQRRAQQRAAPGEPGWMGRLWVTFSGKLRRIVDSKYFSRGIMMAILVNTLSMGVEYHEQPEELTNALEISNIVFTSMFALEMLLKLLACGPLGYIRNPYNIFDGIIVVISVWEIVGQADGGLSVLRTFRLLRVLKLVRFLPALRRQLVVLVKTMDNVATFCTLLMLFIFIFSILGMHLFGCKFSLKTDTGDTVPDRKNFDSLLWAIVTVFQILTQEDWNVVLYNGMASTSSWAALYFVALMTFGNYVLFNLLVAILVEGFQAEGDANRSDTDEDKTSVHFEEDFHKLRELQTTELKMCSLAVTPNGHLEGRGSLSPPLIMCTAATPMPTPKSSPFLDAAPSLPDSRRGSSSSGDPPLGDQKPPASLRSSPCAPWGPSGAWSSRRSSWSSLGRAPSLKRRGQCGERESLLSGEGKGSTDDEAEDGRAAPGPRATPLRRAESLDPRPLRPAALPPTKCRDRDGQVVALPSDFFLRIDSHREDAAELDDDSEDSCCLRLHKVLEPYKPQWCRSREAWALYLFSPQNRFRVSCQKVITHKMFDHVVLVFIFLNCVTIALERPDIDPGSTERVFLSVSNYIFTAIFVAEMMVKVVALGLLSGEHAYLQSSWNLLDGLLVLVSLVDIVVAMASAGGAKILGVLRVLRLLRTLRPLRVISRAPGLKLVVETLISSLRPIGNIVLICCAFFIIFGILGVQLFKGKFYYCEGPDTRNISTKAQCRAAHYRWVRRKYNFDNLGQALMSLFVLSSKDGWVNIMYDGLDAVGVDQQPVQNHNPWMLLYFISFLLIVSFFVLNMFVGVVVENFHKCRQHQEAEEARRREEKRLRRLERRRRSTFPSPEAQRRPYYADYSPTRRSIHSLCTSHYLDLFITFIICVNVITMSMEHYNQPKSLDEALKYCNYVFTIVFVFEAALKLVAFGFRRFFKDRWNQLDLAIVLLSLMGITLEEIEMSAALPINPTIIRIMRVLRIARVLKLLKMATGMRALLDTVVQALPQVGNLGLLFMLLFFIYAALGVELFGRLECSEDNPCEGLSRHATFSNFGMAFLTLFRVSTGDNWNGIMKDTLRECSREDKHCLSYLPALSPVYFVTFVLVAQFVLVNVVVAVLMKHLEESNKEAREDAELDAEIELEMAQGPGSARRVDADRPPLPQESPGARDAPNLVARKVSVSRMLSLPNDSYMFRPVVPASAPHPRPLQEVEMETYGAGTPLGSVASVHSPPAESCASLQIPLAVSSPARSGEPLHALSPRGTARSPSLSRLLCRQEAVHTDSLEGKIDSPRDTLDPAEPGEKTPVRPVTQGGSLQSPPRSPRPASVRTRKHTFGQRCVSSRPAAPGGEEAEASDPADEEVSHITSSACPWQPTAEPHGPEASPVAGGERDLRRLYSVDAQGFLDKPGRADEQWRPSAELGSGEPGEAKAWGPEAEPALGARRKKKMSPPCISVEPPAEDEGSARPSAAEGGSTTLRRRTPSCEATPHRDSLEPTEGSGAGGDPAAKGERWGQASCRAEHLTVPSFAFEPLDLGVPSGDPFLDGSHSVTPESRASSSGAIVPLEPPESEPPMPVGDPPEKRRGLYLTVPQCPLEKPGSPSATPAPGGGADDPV

Broadly, the IC50 is the midpoint of a concentration-inhibition curve. Regarding `O=C(Cc1nc2ccccc2o1)N[C@@H]1CCN(c2cncc(C(F)(F)F)c2)C1` [Example 98, (R)-2-(benzo[d]oxazol-2-yl)-N-(1-(5-(trifluoromethyl)pyridin-3-yl)pyrrolidin-3-yl)acetamide], the IC50 turned out to be 1100 nM.

Turning to `O=C(N[C@@H]1CCN(c2cncc(C(F)(F)F)c2)C1)[C@H]1C[C@@H]1c1nc2cc(F)ccc2o1` [Example 49, (1S,2S)-2-(5-fluorobenzo[d]oxazol-2-yl)-N—((R)-1-(5-(trifluoromethyl)pyridin-3-yl)pyrrolidin-3-yl)cyclopropane-1-carboxyamide], the IC50 is 7.1 nM.

On to `CC(C)c1ccc(CC(=O)N[C@@H]2CCN(c3ccc(C(F)(F)F)nc3)C2)cc1` [Example 113, (R)-2-(4-isopropylphenyl)-N-(1-(6-(trifluoromethyl)pyridin-3-yl)pyrrolidin-3-yl)acetamide], for which the IC50 stood at 100 nM.

Take `O=C(Cc1ccc(-n2cccn2)cc1)N[C@@H]1CCN(c2cncc(C(F)(F)F)c2)C1` [Example 146, (R)-2-(4-(1H-pyrazol-1-yl)phenyl)-N-(1-(5-(trifluoromethyl)pyridin-3-yl)pyrrolidin-3-yl)acetamide]: the IC50 was 23 nM.

On to `O=C(Cc1ccc(C2CC2)cc1)N[C@]12CC1CN(c1cncc(C(F)(F)F)c1)C2` (stereo partly shown) [Example 10, 2-(4-cyclopropylphenyl)-N-(3-(5-(trifluoromethyl)pyridin-3-yl)-3-azabicyclo[3.1.0]hexan-1-yl) acetamide], for which the IC50 stood at 410 nM.

On to `O=C(N[C@@H]1CCN(c2cncc(C(F)(F)F)c2)C1)C1CC1c1ccc(C2CC2)cc1` (single isomer, unassigned) [Example 106A], for which the IC50 was 11 nM.

For `O=C(Cc1ccc2cc[nH]c2c1)N[C@@H]1CCN(c2cncc(C(F)(F)F)c2)C1` [Example 124, (R)-2-(1H-indol-6-yl)-N-(1-(5-(trifluoromethyl)pyridin-3-yl)pyrrolidin-3-yl)acetamide], the 50% inhibitory concentration (IC50) amounted to 62 nM.

Regarding `O=C(N[C@@H]1CCN(c2nc(C(F)(F)F)cs2)C1)[C@H]1C[C@@H]1c1nc2ccccc2o1` [Example 47, (1S,2S)-2-(benzo[d]oxazol-2-yl)-N—((R)-1-(4-(trifluoromethyl)thiazol-2-yl)pyrrolidin-3-yl)cyclopropane-1-carboxyamide], the IC50 worked out at 350 nM.

As for `O=C(N[C@@H]1CCCN(c2ccc(C(F)(F)F)nc2)C1)C1CC1c1nc2ccccc2[nH]1` (single isomer, unassigned) [Example 63B], the IC50 is above 10000 nM.

For `O=C(Cc1cc(Cl)cc(Cl)c1)N[C@@H]1CCN(c2cncc(C(F)(F)F)c2)C1` [Example 119, (R)-2-(3,5-dichlorophenyl)-N-(1-(5-(trifluoromethyl)pyridin-3-yl)pyrrolidin-3-yl)acetamide], the IC50 worked out at 2300 nM.

As to `O=C(Cc1ccc(C(F)(F)F)cc1)N[C@@H]1CCN(c2cncc(C(F)(F)F)n2)C1` [Example 11, (R)-2-(4-(trifluoromethyl)phenyl)-N-(1-(6-(trifluoromethyl)pyrazin-2-yl)pyrrolidin-3-yl)acetamide], the IC50 was 180 nM.

For the compound `CC(C)c1ccc(CC(=O)N[C@@H]2CCN(c3ncc(C(F)(F)F)cn3)C2)cc1` [Example 111, (R)-2-(4-isopropylphenyl)-N-(1-(5-(trifluoromethyl)pyrimidin-2-yl)pyrrolidin-3-yl)acetamide], the IC50 came out at 9900 nM.

For the compound `O=C(Cc1ccc(C2CC2)cc1)NC1CN(c2ccc(F)c(C(F)(F)F)c2)C1` [Example 170, 2-(4-cyclopropylphenyl)-N-(1-(4-fluoro-3-(trifluoromethyl)phenyl)azetidin-3-yl)acetamide], the IC50 is 880 nM.

`O=C(Cc1ccc(C2CC2)cc1)N[C@H]1CN(c2cncc(C(F)(F)F)c2)C[C@@H]1O` [Example 5, 2-(4-cyclopropylphenyl)-N-((3S,4S)-4-hydroxy-1-(5-(trifluoromethyl)pyridin-3-yl)pyrrolidin-3-yl)acetamide]: the IC50 was 290 nM.

With `O=C(Cc1nc2ccc(Cl)cc2o1)N[C@@H]1CCN(c2cncc(C(F)(F)F)c2)C1` [Example 97, (R)-2-(6-chlorobenzo[d]oxazol-2-yl)-N-(1-(5-(trifluoromethyl)pyridin-3-yl)pyrrolidin-3-yl)acetamide], the IC50 was 250 nM.

With `O=C(Cc1ccc(N2C[C@@H]3CC[C@H]2CO3)cc1)N[C@@H]1CCN(c2cncc(C(F)(F)F)c2)C1` [Example 155, 2-(4-((1S,4S)-2-oxa-5-azabicyclo[2.2.2]octan-5-yl)phenyl)-N—((R)-1-(5-(trifluoromethyl)pyridin-3-yl)pyrrolidin-3-yl)acetamide], the IC50 was determined as 75 nM.

In the case of `CC(=O)N1CCN(c2ccc(CC(=O)N[C@@H]3CCN(c4cncc(C(F)(F)F)c4)C3)cc2)CC1` [Example 95, (R)-2-(4-(4-acetylpiperazin-1-yl)phenyl)-N-(1-(5-(trifluoromethyl)pyridin-3-yl)pyrrolidin-3-yl)acetamide], the IC50 worked out at 230 nM.

With `O=C(N[C@@H]1CCN(c2cncc(C(F)(F)F)c2)C1)C1(c2ccc(C(F)(F)F)cc2)CC1` [Example 34, (R)-1-(4-(trifluoromethyl)phenyl)-N-(1-(5-(trifluoromethyl)pyridin-3-yl)pyrrolidin-3-yl)cyclopropane-1-carboxyamide], the IC50 is 240 nM.

Turning to `Cn1ccc2ccc(CC(=O)N[C@@H]3CCN(c4cncc(C(F)(F)F)c4)C3)cc21` [Example 91, (R)-2-(1-methyl-1H-indol-6-yl)-N-(1-(5-(trifluoromethyl)pyridin-3-yl)pyrrolidin-3-yl)acetamide], the IC50 was 32 nM.

`N#CC1(NC(=O)Cc2ccc(C3CC3)cc2)CCN(c2cncc(C(F)(F)F)c2)C1` (stereo not shown) [Example 36, N-(3-cyano-1-(5-(trifluoromethyl)pyridin-3-yl)pyrrolidin-3-yl)-2-(4-cyclopropylphenyl)acetamide]: the IC50 is 980 nM.

In the case of `C[C@@H]1CN(c2ccc(CC(=O)N[C@@H]3CCN(c4cncc(C(F)(F)F)c4)C3)cc2)C[C@H](C)O1` [Example 86, 2-(4-((2R,6S)-2,6-dimethylmorpholino)phenyl)-N—((R)-1-(5-(trifluoromethyl)pyridin-3-yl)pyrrolidin-3-yl) acetamide], the IC50 came out at 370 nM.

Consider `CC(C)Cc1ccc([C@H](C)C(=O)N[C@@H]2CCN(c3cncc(C(F)(F)F)c3)C2)cc1` [Example 31, (S)-2-(4-isobutylphenyl)-N—((R)-1-(5-(trifluoromethyl)pyridin-3-yl)pyrrolidin-3-yl)propanamide], for which the IC50 came to 210 nM.

`CC(C)c1ccc(CC(=O)NC2CN(c3cncc(C(F)(F)F)c3)C2)cc1` [Example 117, 2-(4-Isopropylphenyl)-N-(1-(5-(trifluoromethyl)pyridin-3-yl)azetidin-3-yl)acetamide]: the IC50 was 71 nM.

`O=C(Cc1ccc(C2CC2)cc1)N[C@@H]1CCN(c2nc3ccc(F)cc3s2)C1` [Example 172, (R)-2-(4-cyclopropylphenyl)-N-(1-(6-fluorobenzo[d]thiazol-2-yl)pyrrolidin-3-yl)acetamide]: the IC50 is 550 nM.

Take `O=C(Cc1ccc(C2CC2)cc1)NC1(C(=O)O)CCN(c2cncc(C(F)(F)F)c2)C1` (stereo not shown) [Example 14, 3-(2-(4-cyclopropylphenyl)acetamido)-1-(5-(trifluoromethyl)pyridin-3-yl)pyrrolidine-3-carboxylic acid]: the IC50 was 5200 nM.

These data come from patent publication US20220226299A1 (NIPPON CHEMIPHAR CO., LTD., priority 2019, published 2022).
